This note sets out measurements from US10752587B2, “Homobispiperidinyl derivatives as liver X receptor beta agonists, compositions and their use” (Merck Sharp & Dohme Corp., priority 2015, dated 2020).

Test [1] deals with T1, glutathione-S-transferase (GST) tagged LXRbeta LBD (ligand binding domain) (Homo sapiens, UniProt P55055).
T1 construct: purchased Invitrogen pv4658.pps
T1 sequence (P55055 222-460 limits assumed): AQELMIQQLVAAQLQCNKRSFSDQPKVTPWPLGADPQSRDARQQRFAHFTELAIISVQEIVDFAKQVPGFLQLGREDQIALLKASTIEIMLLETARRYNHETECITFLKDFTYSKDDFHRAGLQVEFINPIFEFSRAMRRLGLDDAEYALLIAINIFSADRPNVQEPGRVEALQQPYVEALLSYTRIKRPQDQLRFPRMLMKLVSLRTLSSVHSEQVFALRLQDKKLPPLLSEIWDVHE
In words: LanthaScreen TR-FRET Liver X Receptor Coactivator Assay, co-activator recruitment to LXRbeta LBD. It counts as biochemical. The conditions noted are these: for Emax / LXR beta Activity @ max dose (%): efficacy at max dose, in relation to reference dual agonist T0901317; for Emax: read-out: LXR beta Activity @ max dose (%); for EC50: potency (Inflection Point, IP), co-activator recruitment to LXRbeta LBD, in relation to T0901317, read-out: LXR beta IP. Summed up: (§1)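 Efficacy (Emax) and inflection-point potency were scaled to reference agonist T0901317, acting on both LXR subtypes. Ligand-driven coactivator peptide recruitment was detected by TR-FRET after room-temperature incubation with terbium anti-GST antibody.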

Test [2] has as its target T2, glutathione-S-transferase (GST) tagged LXRalpha LBD (ligand binding domain) (Homo sapiens, UniProt Q13133).
T2 construct: purchased Invitrogen pv4655
T2 sequence (Q13133 209-447 limits assumed): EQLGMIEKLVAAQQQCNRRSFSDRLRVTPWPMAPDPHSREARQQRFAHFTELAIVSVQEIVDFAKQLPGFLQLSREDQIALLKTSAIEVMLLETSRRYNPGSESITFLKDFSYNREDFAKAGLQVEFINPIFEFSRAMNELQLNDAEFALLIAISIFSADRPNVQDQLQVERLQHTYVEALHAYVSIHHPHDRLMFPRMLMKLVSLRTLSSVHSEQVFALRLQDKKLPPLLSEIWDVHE
In words: LanthaScreen TR-FRET Liver X Receptor Coactivator Assay, co-activator recruitment to LXRalpha LBD. The format is biochemical. The conditions noted are these: for Emax / LXR alpha Activity @ max dose (%): efficacy at max dose, in relation to reference dual agonist T0901317; for Emax: read-out: LXR alpha Activity @ max dose (%); for LXR alpha IP (nM) / EC50: potency (Inflection Point, IP), co-activator recruitment to LXRalpha LBD, in relation to T0901317; for EC50: read-out: LXR alpha IP. The method in brief: as §1
A general note: In TR-FRET formats the signal depends on donor and acceptor labels being close together.

On to `CN(C)C(=O)c1ccc(N2CCC(CC3CCN(C(=O)[C@@](O)(c4ccccc4)C(F)(F)F)CC3)CC2)cc1` [Example 2-127, N,N-dimethyl-4-[4-({1-[(2S)-3,3,3-trifluoro-2-hydroxy-2-phenyl-propanoyl]piperidin-4-yl}methyl)piperidin-1-yl]benzamide], for which, in test [1], the Emax is 68% and the EC50 was 0.877 µM. In addition, in test [2], the Emax turned out to be 9% and the “LXR alpha IP (nM)” value is given as “NO IP”.

`CN(C)C(=O)c1ccc(N2CCC(CC3CCN(C(=O)[C@](O)(c4ccccc4)C(F)(F)F)CC3)CC2)cc1` [Example 2-128, N,N-dimethyl-4-[4-({1-[(2R)-3,3,3-trifluoro-2-hydroxy-2-phenyl-propanoyl]piperidin-4-yl}methyl)piperidin-1-yl]benzamide]: in test [1], the Emax was 73% and the EC50 was 0.058 µM. Also, in test [2], the Emax was found to be 34% and the EC50 was found to be 1.04 µM.

For `Cc1cccc([C@@](O)(C(=O)N2CCC(CC3CCN(c4ccc(C(=O)N(C)C)cc4)CC3)CC2)C(F)(F)F)c1` [Example 2-129, N,N-dimethyl-4-[4-({1-[(2R)-3,3,3-trifluoro-2-hydroxy-2-(3-methylphenyl)propanoyl]piperidin-4-yl}methyl)piperidin-1-yl]benzamide], in test [1], the Emax came to 51% and the EC50 turned out to be 0.051 µM. For the same compound, in test [2], the Emax came to 5% and the “LXR alpha IP (nM)” value is reported as “NO IP”.

Regarding `COc1cccc([C@@](O)(C(=O)N2CCC(CC3CCN(c4ccc(C(=O)N(C)C)cc4)CC3)CC2)C(F)F)c1` [Example 2-130, 4-[4-({1-[(2R)-3,3-difluoro-2-hydroxy-2-(3-methoxy-phenyl)propanoyl]piperidin-4-yl}methyl)piperidin-1-yl]-N,N-dimethyl-benzamide], in test [1], the Emax was determined as 31% and the EC50 was 0.191 µM. For the same compound, in test [2], the Emax worked out at 0% and the “LXR alpha IP (nM)” value is “NO IP”.

`CN(C)C(=O)c1ccc(N2CCC(CC3CCN(C(=O)[C@](O)(c4cccc(Cl)c4)C(F)(F)F)CC3)CC2)cc1` [Example 2-131, 4-[4-({1-[(2R)-2-(3-chloro-phenyl)-3,3,3-trifluoro-2-hydroxy-propanoyl]piperidin-4-yl}methyl)piperidin-1-yl]-N,N-dimethyl-benzamide]: in test [1], the Emax was 59% and the EC50 came out at 0.053 µM. Besides, in test [2], the Emax turned out to be 10% and the “LXR alpha IP (nM)” value was “NO IP”.

As to `COc1cccc([C@@](O)(C(=O)N2CCC(CC3CCN(c4ccc(C(=O)N(C)C)cc4)CC3)CC2)C(F)(F)F)c1` [Example 2-132, N,N-dimethyl-4-[4-({1-[(2R)-3,3,3-trifluoro-2-hydroxy-2-(3-methoxyphenyl)propanoyl]piperidin-4-yl}methyl)piperidin-1-yl]benzamide], in test [1], the “LXR beta Activity @ max dose (%)” value is listed as 49% and the EC50 was found to be 0.051 µM. Moreover, in test [2], the “LXR alpha Activity @ max dose (%)” value came to 7% and the “LXR alpha IP (nM)” value is reported as “NO IP”.

Turning to `CN(C)C(=O)c1ccc(N2CCC(CC3CCN(C(=O)[C@](O)(c4cc(Cl)cc(Cl)c4)C(F)(F)F)CC3)CC2)cc1` [Example 2-133, 4-[4-({1-[(2R)-2-(3,5-dichloro-phenyl)-3,3,3-trifluoro-2-hydroxy-propanoyl]piperidin-4-yl}methyl)piperidin-1-yl]-N,N-dimethyl-benzamide], in test [1], the Emax came out at 54% and the EC50 amounted to 0.036 µM. In test [2], the Emax is 6% and the “LXR alpha IP (nM)” value is on record as “NO IP”.

With `CN(C)C(=O)c1ccc(N2CCC(CC3CCN(C(=O)[C@](O)(c4cccc(OC(F)F)c4)C(F)(F)F)CC3)CC2)cc1` [Example 2-134, 4-{4-[(1-{(2R)-2-[3-(difluoro-methoxy)phenyl]-3,3,3-trifluoro-2-hydroxy-propanoyl}piperidin-4-yl)methyl]piperidin-1-yl}-N,N-dimethyl-benzamide], in test [1], the Emax came out at 67% and the EC50 worked out at 0.12 µM. In test [2], the Emax is 18% and the EC50 amounted to 1.98 µM.

Turning to `CC(C)Oc1cccc([C@@](O)(C(=O)N2CCC(CC3CCN(c4ccc(C(=O)N(C)C)cc4)CC3)CC2)C(F)(F)F)c1` [Example 2-135, N,N-dimethyl-4-{4-[(1-{(2R)-3,3,3-trifluoro-2-hydroxy-2-[3-(1-methylethoxy)phenyl]propanoyl}piperidin-4-yl)methyl]piperidin-1-yl}benzamide], in test [1], the Emax stood at 63% and the EC50 was 0.044 µM. In test [2], the Emax is 3% and the “LXR alpha IP (nM)” value was “NO IP”.

As to `CN(C)C(=O)c1ccc(N2CCC(CC3CCN(C(=O)[C@](O)(c4cccc(C(F)(F)F)c4)C(F)(F)F)CC3)CC2)cc1` [Example 2-136, N,N-dimethyl-4-{4-[(1-{(2R)-3,3,3-trifluoro-2-hydroxy-2-[3-(trifluoromethyl)phenyl]propanoyl}piperidin-4-yl)methyl]piperidin-1-yl}benzamide], the Emax in test [1] stood at 64%; in test [2], 20%. For the same compound, the EC50 is 0.069 µM in test [1] and 0.714 µM in test [2].

For the compound `COc1cc(F)cc([C@@](O)(C(=O)N2CCC(CC3CCN(c4ccc(C(=O)N(C)C)cc4)CC3)CC2)C(F)(F)F)c1` [Example 2-137, N,N-dimethyl-4-[4-({1-[(2R)-3,3,3-trifluoro-2-(3-fluoro-5-methoxyphenyl)-2-hydroxy-propanoyl]piperidin-4-yl}methyl)piperidin-1-yl]benzamide], in test [1], the Emax amounted to 78% and the EC50 is 0.03 µM. Moreover, in test [2], the Emax worked out at 15% and the “LXR alpha IP (nM)” value is “NO IP”.

Regarding `COc1cc(Cl)cc([C@@](O)(C(=O)N2CCC(CC3CCN(c4ccc(C(=O)N(C)C)cc4)CC3)CC2)C(F)(F)F)c1` [Example 2-138, 4-[4-({1-[(2R)-2-(3-chloro-5-methoxyphenyl)-3,3,3-trifluoro-2-hydroxy-propanoyl]piperidin-4-yl}methyl)piperidin-1-yl]-N,N-dimethyl-benzamide], in test [1], the Emax worked out at 35% and the EC50 was 0.074 µM. Also, in test [2], the Emax is 0% and the “LXR alpha IP (nM)” value is listed as “NO IP”.

In the case of `CN(C)C(=O)c1ccc(N2CCC(CC3CCN(C(=O)[C@](O)(c4cc(F)cc(Cl)c4)C(F)(F)F)CC3)CC2)cc1` [Example 2-139, 4-[4-({1-[(2R)-2-(3-chloro-5-fluorophenyl)-3,3,3-trifluoro-2-hydroxy-propanoyl]piperidin-4-yl}methyl)piperidin-1-yl]-N,N-dimethyl-benzamide], in test [1], the Emax amounted to 95% and the EC50 stood at 0.014 µM. Further, in test [2], the Emax is 36% and the EC50 was 0.266 µM.

`CN(C)C(=O)c1ccc(N2CCC(CC3CCN(C(=O)[C@](O)(c4ccccc4)C(F)(F)C(F)(F)F)CC3)CC2)cc1` [Example 2-140, N,N-dimethyl-4-[4-({1-[(2R)-3,3,4,4,4-pentafluoro-2-hydroxy-2-phenylbutanoyl]piperidin-4-yl}methyl)piperidin-1-yl]benzamide]: in test [1], the Emax was determined as 118% and the EC50 came out at 0.084 µM. Also, in test [2], the Emax turned out to be 43% and the EC50 is 0.836 µM.

In the case of `CCc1cccc([C@@](O)(C(=O)N2CCC(CC3CCN(c4ccc(C(=O)N(C)C)cc4)CC3)CC2)C(F)(F)F)c1` [Example 2-141, 4-[4-({1-[(2R)-2-(3-ethyl-phenyl)-3,3,3-trifluoro-2-hydroxy-propanoyl]piperidin-4-yl}methyl)piperidin-1-yl]-N,N-dimethyl-benzamide], in test [1], the Emax amounted to 51% and the EC50 stood at 0.074 µM. Also, in test [2], the Emax came to 12% and the “LXR alpha IP (nM)” value is listed as “NO IP”.

`CN(C)C(=O)c1ccc(N2CCC(CC3CCN(C(=O)[C@](O)(c4cc(Cl)cc(Cl)c4)C(F)(F)F)CC3)CC2)cc1` [Example 2-142, 4-[4-({1-[(2R)-2-(3,5-dichloro-phenyl)-3,3,3-trifluoro-2-hydroxy-propanoyl]piperidin-4-yl}methyl)piperidin-1-yl]-N,N-dimethyl-benzamide]: in test [1], the “LXR beta Activity @ max dose (%)” value is 60% and the EC50 amounted to 0.06 µM. In test [2], the “LXR alpha Activity @ max dose (%)” value was 4% and the “LXR alpha IP (nM)” value is on record as “NO IP”.

As for `CN(C)C(=O)c1ccc(N2CCC(CC3CCN(C(=O)[C@](O)(c4cccc(Br)c4)C(F)(F)F)CC3)CC2)cc1` [Example 2-143, 4-[4-({1-[(2R)-2-(3-bromo-phenyl)-3,3,3-trifluoro-2-hydroxy-propanoyl]piperidin-4-yl}methyl)piperidin-1-yl]-N,N-dimethyl-benzamide], the Emax in test [1] worked out at 69%; in test [2] it was 23%. For the same compound, the EC50 in test [1] worked out at 0.046 µM; in test [2], 0.413 µM.
